Reference: patent publication US4396598A, “Triiodoisophthalamide X-ray contrast agent” (Mallinckrodt, Inc., priority 1982, dated 1983)

Columns and labels:
[1] = Radiographic observations, whole body radiographs in mouse after intravenous administration; assay type: in vivo; conditions: male mouse, i.v. (lateral tail vein), 10,000 mg I/kg (40% I solution), immediately and 5 minutes after administration
Method: A male mouse (23 g) was anesthetized with sodium pentobarbital (40 mg/kg, i.p.; Nembutal®, Abbott Laboratories). The N,N'-bis(2,3-dihydroxypropyl)-5-N-(2-hydroxyethyl)glycolamido-2,4,6-triiodoisophthalamide prepared by method of Example 1, was administered at a dose of 10,000 mg I/kg (40% I solution) via a lateral tail vein of the mouse at a rate of 1 ml/minute.

[2] = tested on: Swiss mice; assay: Acute Intravenous Toxicity in Mice; assay type: in vivo; conditions: i.v., 40% I, seven day observation
Method: (§1) The following pharmacological studies were conducted on N,N'-bis(2,3-dihydroxypropyl)-5-N-(2-hydroxyethyl)glycolamido-2,4,6-triiodoisophthalamide (PRODUCT), prepared by the method of Example 1.
A solution of the PRODUCT (40% I) was injected into the lateral tail vein of young adult male and female Swiss mice at a rate of 1 ml/min. […]

[3] = Radiographic observations, lateral radiograph of head and thorax in rat after intracisternal injection; assay type: in vivo; conditions: male rat, 137 mg I/kg (40% I solution), immediately after administration
[4] = tested on: Sprague Dawley rats; assay: Acute Intracisternal Toxicity in Rats; assay type: in vivo; conditions: concentration 450, two day observation, 95% confidence limits 874-1,385
Method: as §1
(§2) The technique described by Melartin, et al. (Invest. Radiol. 5: 13-21, 1970) was utilized to evaluate lethal effects of a solution of the PRODUCT after injection into cerebrospinal fluid at the cisterna magna. Young adult male Sprague Dawley rats were used. After dosing, the animals were housed individually and observed for immediate reactions and periodically for a two day observation period. The LD50 value was calculated by the method of Litchfield and Wilcoxin (J. Pharmacol. Exp. Therap. 96: 99-113, 1949) with the following results: […]

[5] = Acute Intracisternal Toxicity in Rats; assay type: in vivo, Sprague Dawley rats; conditions: rat, in vivo, concentration 450, two day observation, 95% confidence limits 1,853-2,936
Method: as §1, §2

## O=C(NCC(O)CO)c1c(I)c(C(=O)NCC(O)CO)c(I)c(N(CCO)C(=O)CO)c1I (centres unmarked) [PRODUCT, N,N'-Bis(2,3-dihydroxypropyl)-5-N-(2-hydroxyethyl)glycolamido-2,4,6-triiodoisophthalamide]
[1]
  opacification on whole body radiographs: opacification of the liver and cardiovascular and renal excretory systems
[2]; 18,500 mg I/kg (39,220 mg/kg)
  NUMBER OF MORTALITIES/NUMBER DOSED: 0/8
[2]; 20,000 mg I/kg (42,400 mg/kg)
  NUMBER OF MORTALITIES/NUMBER DOSED: 5/8
[2]; 21,500 mg I/kg (45,580 mg/kg)
  NUMBER OF MORTALITIES/NUMBER DOSED: 10/10
[2]; mice
  LD50: about 20,000 mg I/kg
[3]
  visualization on lateral radiograph of the head and thorax: good visualization of the cisterna magna, basal cisterns, and cervical subarachnoid space
[4]
  LD50 (95% Confidence Limits): 1,100 mg I/kg
[5]
  LD50 at 48 h: 2330 mg/kg
